Source: US20200267980A1, “Herbicidally Active Pyridyl-/Pyrimidyl-Pyrimidine Derivatives” (Syngenta Participations AG, priority 2017, published 2020)

Key:
Assay type in all cases: in vivo
Avena fatua (AVEFA) [1] = assay: Post-emergence herbicidal activity, glasshouse pot test; conditions: 1000 g/ha, post-emergence spray after 8 days cultivation, evaluated after 13 days, damage score 0-5
Experimental: (§1) Seeds of a variety of test species were sown in standard soil in pots: Triticum aestivium (TRZAW), Avena fatua (AVEFA), Alopecurus myosuroides (ALOMY), Echinochloa crus-galli (ECHCG), Lolium perenne (LOLPE), and Setaria faberi (SETFA). After 8 days cultivation (post-emergence) under controlled conditions in a glasshouse (at 24/16° C., day/night; 14 hours light; 65% humidity), the plants were sprayed with an aqueous spray solution derived from the formulation of the technical active ingredient in acetone/water (50:50) solution containing 0.5% Tween 20 (polyoxyethelyene sorbitan monolaurate, CAS RN 9005-64-5). The test plants were then grown in a glasshouse under controlled conditions (at 24/16° C., day/night; 14 hours light; 65% humidity) and watered twice daily. After 13 days, the test was evaluated (5=total damage to plant; 0=no damage to plant).

[2] = test system: Triticum aestivium (TRZAW); assay: as above; parameters: key: 5=total damage to plant; 0=no damage to plant; conditions: 1000 g/ha, post-emergence spray after 8 days cultivation, evaluated after 13 days, damage score 0-5
Experimental: as §1

Setaria faberi (SETFA) [3] = assay: as above; parameters: key: 5=total damage to plant; 0=no damage to plant; conditions: 1000 g/ha, post-emergence spray after 8 days cultivation, evaluated after 13 days, damage score 0-5
Experimental: as §1

[4] = test system: Echinochloa crus-galli (ECHCG); assay: as above; parameters: key: 5=total damage to plant; 0=no damage to plant; conditions: 1000 g/ha, post-emergence spray after 8 days cultivation, evaluated after 13 days, damage score 0-5
Experimental: as §1

Lolium perenne (LOLPE) [5] = assay: as above; parameters: key: 5=total damage to plant; 0=no damage to plant; conditions: 1000 g/ha, post-emergence spray after 8 days cultivation, evaluated after 13 days, damage score 0-5
Experimental: as §1

[6] = test system: Alopecurus myosuroides (ALOMY); assay: as above; parameters: key: 5=total damage to plant; 0=no damage to plant; conditions: 1000 g/ha, post-emergence spray after 8 days cultivation, evaluated after 13 days, damage score 0-5
Experimental: as §1

[7] = test system: Triticum aestivium (TRZAW); assay: Pre-emergence herbicidal activity, glasshouse pot test; parameters: key: 5=total damage to plant; 0=no damage to plant; conditions: 1000 g/ha, pre-emergence spray, evaluated after 13 days, damage score 0-5
Experimental: as §1, with “After” for “After 8 days”, “for one day (pre-emergence)” for “(post-emergence)”

[8] = test system: Echinochloa crus-galli (ECHCG); assay: as above; parameters: key: 5=total damage to plant; 0=no damage to plant; conditions: 1000 g/ha, pre-emergence spray, evaluated after 13 days, damage score 0-5
Experimental: as §1, with “After” for “After 8 days”, “for one day (pre-emergence)” for “(post-emergence)”

Lolium perenne (LOLPE) [9] = assay: as above; parameters: key: 5=total damage to plant; 0=no damage to plant; conditions: 1000 g/ha, pre-emergence spray, evaluated after 13 days, damage score 0-5
Experimental: as §1, with “After” for “After 8 days”, “for one day (pre-emergence)” for “(post-emergence)”

Avena fatua (AVEFA) [10] = assay: as above; parameters: key: 5=total damage to plant; 0=no damage to plant; conditions: 1000 g/ha, pre-emergence spray, evaluated after 13 days, damage score 0-5
Experimental: as §1, with “After” for “After 8 days”, “for one day (pre-emergence)” for “(post-emergence)”

[11] = test system: Alopecurus myosuroides (ALOMY); assay: as above; parameters: key: 5=total damage to plant; 0=no damage to plant; conditions: 1000 g/ha, pre-emergence spray, evaluated after 13 days, damage score 0-5
Experimental: as §1, with “After” for “After 8 days”, “for one day (pre-emergence)” for “(post-emergence)”

Setaria faberi (SETFA) [12] = assay: as above; parameters: key: 5=total damage to plant; 0=no damage to plant; conditions: 1000 g/ha, pre-emergence spray, evaluated after 13 days, damage score 0-5
Experimental: as §1, with “After” for “After 8 days”, “for one day (pre-emergence)” for “(post-emergence)”

Row | Structure (SMILES) | Control of weed species after post-emergence application, AVEFA (Avena fatua (AVEFA) [1]) | Control of weed species after post-emergence application, TRAZW [2] | Control of weed species after post-emergence application, SETFA (Setaria faberi (SETFA) [3]) | Control of weed species after post-emergence application, ECHCG [4] | Control of weed species after post-emergence application, LOLPE (Lolium perenne (LOLPE) [5]) | Control of weed species after post-emergence application, ALOMY [6] | Control of weed species after pre-emergence application, TRAZW [7] | Control of weed species after pre-emergence application, ECHCG [8] | Control of weed species after pre-emergence application, LOLPE (Lolium perenne (LOLPE) [9]) | Control of weed species after pre-emergence application, AVEFA (Avena fatua (AVEFA) [10]) | Control of weed species after pre-emergence application, ALOMY [11] | Control of weed species after pre-emergence application, SETFA (Setaria faberi (SETFA) [12])
1 | CC(C)C(=O)Nc1cnc(-c2cncc(F)c2)nc1C(F)(F)F [Compound F13] | 3 | 0 | 5 | 5 | 2 | 0 | 0 | 4 | 1 | 2 | 0 | 
2 | CC(=O)Nc1cnc(-c2cncnc2)nc1C(F)(F)F [Compound F31] | 3 | 1 | 4 | 4 | 2 | 1 | 1 | 4 | 1 | 2 | 1 | 4
3 | CCCC(=O)Nc1cnc(-c2cncc(F)c2)nc1C(F)(F)F [Compound F33] | 3 | 1 | 5 | 4 | 2 | 1 | 1 | 4 | 0 | 1 | 0 | 4
4 | Cc1ccc(C(=O)Nc2cnc(-c3cncc(F)c3)nc2C(F)(F)F)cc1 [Compound F25] | 2 | 0 | 4 | 5 | 1 | 0 | 0 | 3 | 0 | 0 | 0 | 4
5 | Cc1nc(-c2cncnc2)ncc1NC(=O)C(C)C [Compound F1, 2-methyl-N-(4-methyl-2-pyrimidin-5-yl-pyrimidin-5-yl)propanamide] | 3 | 0 |  | 4 | 1 | 0 | 0 | 3 | 0 | 2 | 0 | 5
6 | Cc1nc(-c2cncnc2)ncc1N(C(=O)C(C)C)C(=O)C(C)C [Compound F2, 2-methyl-N-(2-methylpropanoyl)-N-(4-methyl-2-pyrimidin-5-yl-pyrimidin-5-yl)propanamide] | 3 | 0 |  | 5 | 1 | 0 | 0 | 4 | 0 | 2 | 0 | 5
7 | CC(=O)Nc1cnc(-c2cncc(F)c2)nc1C(F)(F)F [Compound F11] | 3 | 1 | 5 | 4 | 2 | 1 | 0 | 4 | 1 | 2 | 0 | 
8 | CCCCC(=O)Nc1cnc(-c2cncc(F)c2)nc1C(F)(F)F [Compound F12] | 3 | 0 | 5 | 4 | 2 | 0 | 0 | 3 | 1 | 2 | 0 | 
9 | O=C(Nc1cnc(-c2cncc(F)c2)nc1C(F)(F)F)C1CC1 [Compound F14, N-[2-(5-fluoro-3-pyridyl)-4-(trifluoromethyl)-pyrimidin-5-yl]cyclopropanecarboxamide] | 3 | 1 | 5 | 5 | 4 | 0 | 0 | 4 | 2 | 2 | 0 | 
10 | COCCC(=O)Nc1cnc(-c2cncc(F)c2)nc1C(F)(F)F [Compound F15] | 3 | 1 | 5 | 4 | 2 | 0 | 0 | 4 | 0 | 2 | 0 | 
